Consider six molecules from patent publication US7572606B1 (Nereus Pharmaceuticals, Inc., priority 2005, dated 2009).

For data set [1], the system named is proteasome in packed whole blood lysate. As to the kind of experiment: Dose response on PWBL lysates in vitro. It counts as biochemical, mouse. To be noted: lysates of vehicle and 0.1 mg/kg Salinosporamide A treated animals. The source says: Palayoor et al., Oncogene 18:7389-94 (1999).
The test system of data set [2] is NF-κB-mediated luciferase activity in HEK293 NF-κB/Luc cells. Description: NF-κB-mediated luciferase reporter gene assay. Conditions: for EC50: 6 h TNF-α stimulation; for luciferase activity upon TNF-α stimulation: pretreatment of NF-κB/Luc 293 cells. It counts as cell-based, human. The procedure:
The HEK293 NF-κB/luciferase reporter cell line is a derivative of the human embryonic kidney cell line (ATCC; CRL-1573) and carries a luciferase reporter gene under the regulation of 5×NF-κB binding sites. […] When performing the luciferase assay, the DMEM basal medium was replaced with phenol-red free DMEM basal medium and the G418 was omitted.
For NF-κB-mediated luciferase assays, HEK293 NF-κB/luciferase cells were seeded at 1.5×10^4 cells/well in 90 μl phenol-red free DMEM complete medium into Corning 3917 white opaque-bottom tissue culture plates. For Formulae II-2, II-4, II-5A and II-18, a 400 μM starting dilution was made in 100% DMSO and this dilution was used to generate an 8-point half log dilution series. […] For formula II-20, a 2.5 mM or 8 mM starting dilution was made in 100% DMSO and the final test concentrations ranged from 6.3 μM to 2.0 nM or 20 μM to 6.3 nM respectively. The plates were returned to the incubator for 1 hour. After 1 hr pretreatment, 10 μl of a 50 ng/ml TNF-α solution, prepared in the phenol-red free DMEM medium was added, and the plates were incubated for an additional 6 hours.
At the end of the TNF-α stimulation, 100 μl of Steady Lite HTS luciferase reagent (Packard Bioscience) was added to each well and the plates were left undisturbed for 10 min at room temperature before measuring the luciferase activity. The relative luciferase units (RLU) were measured by using a Fusion microplate fluorometer (Packard Bioscience).
NF-κB inducible luciferase activity was measured at 6 hours.
(A reporter such as luciferase makes a cellular process visible.)

The next data set relates to RPMI 8226. Description: Cell growth inhibition, resazurin, 48 h. The procedure: (§1) RPMI 8226 (CCL-155), HT-29 (HTB-38), and B16-F10 (CRL-6475) cells were purchased from ATCC. RPMI 8226 cells were maintained in RPMI 1640 media supplemented with 10% (v/v) FBS, 2 mM L-glutamine, 1 mM sodium pyruvate and Penicillin/Streptomycin at 100 IU/ml and 100 μg/ml, respectively. HT-29 cells were maintained in McCoys 5A supplemented with 10% (v/v) FBS, 2 mM L-glutamine, 1 mM sodium pyruvate, 1% (v/v) non-essential amino acids, 10 mM HEPES and Penicillin/Streptomycin at 100 IU/ml and 100 μg/ml, respectively. B16-F10 cells were maintained in DMEM supplemented with 10% (v/v) FBS, 2 mM L-glutamine, 10 mM HEPES and Penicillin/Streptomycin at 100 IU/ml and 100 μg/ml, respectively.
(§2) RPMI 8226 cells were seeded at 2×10^4 cells/well in 90 μl RPMI media containing 10% (v/v) FBS or 1% (v/v) FBS into 96 well black-walled, clear-bottom tissue culture plates. […] Formulae II-16, II-17 and Formula II-18 were serially diluted in media containing 1% or 10% FBS and added in triplicate to the test wells. […] The final concentration of Formula II-18 ranged from 2 μM to 630 pM.
On the technique in general: Alamar Blue is a resazurin reagent that responds to reducing activity.

The test system of the next data set is MES-SA. As to the kind of experiment: Cell growth inhibition, resazurin, 48 h. Conditions: 48 h drug exposure. As to the method:
(§3) Concentrations ranging from 6.32 μM to 2 nM were tested for II-2 and II-4.

A further data set relates to HL-60. As to the kind of experiment: Cell growth inhibition, resazurin, 48 h. Conditions: HL-60, 48 h drug exposure. The procedure:
(§4) The DNA binding agent Mitoxantrone was included as a control, as HL-60/MX2 cells are reported to be resistant to this chemotherapeutic agent (Harker W. G. et al. 1989).
as §3

The next data set relates to HL-60/MX2. As to the kind of experiment: Cell growth inhibition, resazurin, 48 h. To be noted: HL-60/MX2, 48 h drug exposure. The procedure:
as §4, §3

The target in data set [3] is caspase-like (PGPH) activity of rabbit muscle 20S proteasome (Oryctolagus cuniculus, UniProt A0A5F9DQW2). Description: In vitro inhibition of 20S proteasome, Z-LLE-AMC. To be noted: read-out: EC50 Caspase-like (PGPH), purified rabbit 20S proteasome, Z-LLE-AMC.
caspase-like (PGPH) activity of rabbit muscle 20S proteasome, sequence (A0A5F9DQW2 1-212): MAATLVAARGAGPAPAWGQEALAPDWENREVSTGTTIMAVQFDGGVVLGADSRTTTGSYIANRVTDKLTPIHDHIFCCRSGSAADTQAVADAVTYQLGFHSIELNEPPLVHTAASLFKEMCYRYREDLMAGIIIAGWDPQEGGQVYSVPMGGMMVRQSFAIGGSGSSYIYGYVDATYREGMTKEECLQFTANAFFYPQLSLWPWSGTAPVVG
The subject of a further data set is U266. As to the kind of experiment: Cell growth inhibition, resazurin, 48 h. In kind it is cell-based, human. Conditions: Homo sapiens, U-266, 48 h, U266, 48 h drug exposure; read-out: EC50.
Data set [4] deals with T1, trypsin-like activity of rabbit muscle 20S proteasome (Oryctolagus cuniculus, UniProt G1SWK8).
T1 construct: EC50 Trypsin-like; other: purified rabbit 20S proteasome, Boc-LRR-AMC; other: under the conditions tested
T1 sequence (G1SWK8 1-271): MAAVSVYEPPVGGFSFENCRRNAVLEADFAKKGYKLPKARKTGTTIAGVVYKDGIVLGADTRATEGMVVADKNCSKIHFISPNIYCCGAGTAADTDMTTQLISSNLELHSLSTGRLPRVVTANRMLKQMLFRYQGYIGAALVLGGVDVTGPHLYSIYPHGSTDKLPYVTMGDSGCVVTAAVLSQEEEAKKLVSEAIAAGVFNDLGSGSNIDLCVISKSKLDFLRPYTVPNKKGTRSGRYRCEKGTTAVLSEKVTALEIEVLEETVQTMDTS
As to the kind of experiment: In vitro inhibition of 20S proteasome, Boc-LRR-AMC. To be noted: for inhibition of the trypsin-like activity of the 20S proteasome: under the conditions tested. It counts as biochemical.

The test system of another data set is PC-3. As to the kind of experiment: Cell growth inhibition, resazurin, 48 h. Conditions: Homo sapiens, PC-3, 48 h, PC-3, 48 h drug exposure.
In another data set the test system is HT-29. Description: Cell growth inhibition, resazurin, 48 h. In kind it is cell-based, human. Conditions: Homo sapiens, HT-29, 48 h, HT-29, 48 h drug exposure. As to the method: as §1, §2
In a further data set the test system is MDA-MB-231. As to the kind of experiment: Cell growth inhibition, resazurin, 48 h. It counts as cell-based, human. To be noted: Homo sapiens, MDA-MB-231, 48 h, MDA-MB-231, 48 h drug exposure.
Another data set relates to B16-F10. Description: Cell growth inhibition, resazurin, 48 h. In kind it is cell-based, mouse. Conditions: Mus musculus, B16-F10, 48 h, B16-F10, 48 h drug exposure. The procedure:
as §1, §2

For another data set, the system named is NCI-H292. As to the kind of experiment: Cell growth inhibition, resazurin, 48 h. It counts as cell-based, human. To be noted: Homo sapiens, NCI-H292, 48 h, NCI-H292, 48 h drug exposure.
The target in data set [5] is T2, chymotrypsin-like activity of rabbit muscle 20S proteasome (Oryctolagus cuniculus, UniProt G1T4Q9).
T2 sequence (G1T4Q9 1-263): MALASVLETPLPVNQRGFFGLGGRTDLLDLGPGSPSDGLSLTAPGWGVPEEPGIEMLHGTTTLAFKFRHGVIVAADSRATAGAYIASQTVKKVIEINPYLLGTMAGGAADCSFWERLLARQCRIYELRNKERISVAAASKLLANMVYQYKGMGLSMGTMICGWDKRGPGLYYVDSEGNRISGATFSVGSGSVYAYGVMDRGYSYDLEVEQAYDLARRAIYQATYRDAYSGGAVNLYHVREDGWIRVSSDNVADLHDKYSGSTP
Description: In vitro inhibition of 20S proteasome, suc-LLVY-AMC.

For a further data set, the system named is OVCAR-3. Description: Cell growth inhibition, resazurin, 48 h. It counts as cell-based, human. To be noted: OVCAR-3, 48 h drug exposure.
A short description of a further data set: Stability in solution. To be noted: converted to compound VI-1B, mixture 7:3. It counts as physicochemical. The procedure: The reaction mixture was stirred at room temperature for about 3 hours. The solvent was evaporated from the reaction mixture to yield the compound of Formula II-48, which was purified by reversed phase HPLC using Ace 5u C18 column (150 mm×22 mm ID) with a solvent gradient of 10% to 70% H2O/Acetonitrile over 15 min, 70 to 100% Acetonitrile over 5 min, holding at 100% Acetonitrile for 4 min, at a flow rate of 14.5 ml/min. Diode array detector was used to monitor the purification process. Compound II-48 (10 mg) eluted as a pure compound at 8.255 min. […] Compound VI-1B: UV (Acetonitrile/H2O) λmax 235 (sh) nm; ESMS, m/z 585.2 (M+H)^+.

For data set [6], the system named is LeTx-induced cytotoxicity of RAW264.7 cells. Conditions: cited from earlier work.

Several values for one entry are separate records, joined by “and”; a condition that tells them apart may be missing. Identical values can stand only once. Like-named read-outs stand apart in the source and are kept apart here. Peptide text beside a SMILES is read from it. * marks the point of attachment. Cbz = O=C(OCc1ccccc1)*

On to `CC[C@H](C)[C@H](NC(=O)[C@H]([C@@H](C)CC)N(C)C(C)=O)C(=O)N[C@H](C(=O)N[C@@H](CC(C)C)C(=O)[C@@]1(C)CO1)[C@@H](C)O` [Epoxomicin], for which, in data set [1], the “hydrolysis of the proteasome substrate in PWBL lysates” value is on record as “dose dependent inhibition in the hydrolysis of the proteasome substrate”.
One may read the EC50 as the concentration needed to bring the measured effect to its halfway point. Regarding `C[C@@]12OC(=O)[C@]1([C@@H](O)[C@@H]1C=CCCC1)NC(=O)[C@@H]2CCBr` [Formula II-18], the EC50 in [2] (1 h pretreatment, listed as II-18, read-out: EC50) was determined as 0.011 µM; in [2] (1 h pretreatment, read-out: EC50), 0.011 µM; in [2] (Homo sapiens, HEK293, 1 h pretreatment, read-out: EC50) it was 0.009 µM; with RPMI 8226 (Homo sapiens, RPMI-8226, 48 h, RPMI 8226, 48 h drug exposure), 0.0063 µM; in the data set on RPMI 8226 (Homo sapiens, RPMI-8226, read-out: 1% FBS, EC50, Mean, RPMI 8226, media containing 1% FBS, mean of two), 0.014 µM; in the data set with RPMI 8226 (Homo sapiens, RPMI-8226, read-out: 10% FBS, EC50, Mean, RPMI 8226, media containing 10% FBS, mean of two), 0.02 µM. For the same molecule, the half-maximal effective concentration (EC50) in the data set with MES-SA came to 0.017 µM; with MES-SA (Homo sapiens, 48 h), 0.022 µM; in the data set on HL-60 it was 0.023 µM; in the data set with HL-60 (Homo sapiens, HL-60, 48 h), 0.027 µM; in the data set with HL-60/MX2, 0.018 µM; in the data set with HL-60/MX2 (Homo sapiens, HL60/MX2, 48 h), 0.019 µM. The EC50 in [3] was 0.286 µM and 0.213 µM; in data set [3] (listed as II-18) it was 0.286 µM and 0.213 µM; in the data set on U266, 0.0042 µM. Further, in [2], the “luciferase activity upon TNF-α stimulation” value is given as “dose-dependent decrease of luciferase activity”. Besides, the “% cytotoxicity” value in the data set with RPMI 8226 (human, 48 h) is on record as 94, 94%. The “inhibition of the trypsin-like activity of the 20S proteasome” value in data set [4] is “able to inhibit the trypsin-like activity”.
Regarding `C[C@@]12OC(=O)[C@]1([C@@H](O)[C@@H]1C=CCCC1)NC(=O)[C@@H]2CCI` [Formula II-19], the EC50 in the data set with PC-3 is 0.029 ± 0.004 µM; in [2] (1 h pretreatment), 0.01 µM; in [2] (1 h pretreatment, listed as II-19), 0.01 µM; in data set [2] (Homo sapiens, HEK293, 1 h pretreatment) it was 0.007 µM; in the data set with RPMI 8226 (RPMI 8226, 48 h drug exposure), 0.006 µM and 0.007 µM; in the data set with HT-29, 0.011 ± 0.0016 µM. For the same molecule, the EC50 in the data set on MDA-MB-231 is 0.014 ± 0.0032 µM; in [3] it was 0.739 µM; in the data set with B16-F10, 0.013 ± 0.0019 µM; in the data set on NCI-H292, 0.027 ± 0.0038 µM; in data set [5] it was 0.002 to 0.011 µM; in [4] (purified rabbit 20S proteasome, Boc-LRR-AMC), 0.015 µM. Also, the EC50 with OVCAR-3 (Homo sapiens, OVCAR-3, 48 h) is 0.024 µM; with OVCAR-3, 0.02 µM. The “luciferase activity upon TNF-α stimulation” value in data set [2] is on record as “dose-dependent decrease of luciferase activity”. Moreover, the “inhibition of the trypsin-like activity of the 20S proteasome” value in [4] is on record as “able to inhibit the trypsin-like activity”.
For `C[C@]1(O)[C@@H](CCCl)C(=O)N[C@]1(C(=O)SCC(NC(=O)CCC(N)C(=O)O)C(=O)NCC(=O)O)[C@@H](O)[C@@H]1C=CCCC1` (some centres unmarked) [Formula II-48], the stability in solution result in “Stability in solution” is recorded as “unstable in solution”.
Regarding `CC(=O)N[C@@H](CSC(=O)[C@]1([C@@H](O)C(C)C)NC(=O)[C@H](C)[C@@H]1O)C(=O)O` [Lactacystin], the EC50 in data set [6] was 3 µM.
For `CC(C)C[C@@H](C=O)NC(=O)[C@H](CC(C)C)NC(=O)[C@H](CC(C)C)NC(=O)OCc1ccccc1` [MG132] (Cbz-Leu-Leu-Leu-aldehyde), in data set [6], the EC50 is 3 µM.
